The text below walks through data of patent US20090317491A1, “MANUFACTURING METHOD OF MEDICAL STERILIZED ISOTONIC SOLUTION HAVING LOW-CONCENTRATEDLY CONTROLLED FREE CHLORINE INCLUDING HYPOCHLOROUS ACID THEREIN” (priority 2007, published 2009).

Data set [1] has as its system Staphylococcus haemolyticus. The note with it: normal temperature; cited from earlier work.
For data set [2] the following is noted: mucosa of a nose and eyes; cited from earlier work.
Data set [3] can be described thus: Half-life time of HOCl in water / outside the body (FIG. 16). The note with it: water (medical sterilized normal saline), neutral or subacid, outside of human body. The data set is classed as physicochemical. How it is done:
Especially, HOCl generated in the medical sterilized normal saline is very unstable in neutral or subacid area, and thus is tend to be reduced to a half only for 3 minutes. Therefore, the free chlorines should be supplied to patients within 3 minutes from manufacturing the medical normal saline. […] Therefore, prompt supply into the body right after manufacturing the medical normal saline can obtain enough time to sterilize or kill germs, fungi, bacteria, the causes of diseases.
FIG. 16 is a graph of the amount of the free chlorine in accordance with the 20 seconds operation time.

Data set [4] relates to Haemophilus influenzae. As to conditions: normal temperature; cited from earlier work.
The subject of data set [5] is Pseudomonas aeruginosa. As to conditions: normal temperature; cited from earlier work.
The subject of data set [6] is Corynebacterium amycolatum. As to conditions: normal temperature; cited from earlier work.
For data set [7] the following is noted: HOCl versus OCl−; cited from earlier work.
Data set [8] relates to Staphylococcus aureus. As to conditions: normal temperature; cited from earlier work.
Data set [9] relates to Klebsiella pneumoniae. The note with it: normal temperature; cited from earlier work.
The test system of data set [10] is Sterptococcus pyogenes. The note with it: normal temperature; cited from earlier work.
The conditions of data set [11]: inside of a human body / mammal bodies; cited from earlier work.
Data set [12] deals with Staphylococcus epidermidis. As to conditions: normal temperature; cited from earlier work.
The test system of data set [13] is Methicillin-resistent Staphylococcus aureus. As to conditions: normal temperature; cited from earlier work.
In data set [14] the test system is Vancomycin-resistent Enterococcus faecium. As to conditions: normal temperature; cited from earlier work.
The test system of data set [15] is Micrococcus luteus. As to conditions: normal temperature; cited from earlier work.
The subject of data set [16] is Escherichia coli. As to conditions: normal temperature; cited from earlier work.
The test system of data set [17] is Serratia marcescens. As to conditions: normal temperature; cited from earlier work.
Data set [18] deals with Proteus mirabilis. As to conditions: normal temperature; cited from earlier work.
Data set [19] concerns Staphylococcus saprophyticus. The note with it: normal temperature; cited from earlier work.
In data set [20] the test system is Staphylococcus hominis. The note with it: normal temperature; cited from earlier work.
Data set [21] relates to Enterobacter aerogenes. The note with it: normal temperature; cited from earlier work.

SMILES strings stand for the structures.

As usually defined, the half-life is the time needed for the level to fall by half in the phase considered.

For the compound `OCl` [HOCl, Hypochlorous acid], the MBC is on record as 0.338 ppm in data set [1]; 0.338 ppm in [4]; 0.35 ppm in [5]; 0.169 ppm in [6]; 0.173 ppm in [8]; 1.7 ppm in data set [9]. The MBC in data set [10] is 0.169 ppm; in data set [12], 0.338 ppm; in [13], 0.682 ppm; in [14], 2.73 ppm; in [15], 2.77 ppm; in [16], 0.7 ppm. Besides, the MBC in [17] is 0.169 ppm; in data set [18], 0.340 ppm; in data set [19], 0.35 ppm; in [20], 1.4 ppm; in [21], 0.676 ppm. For the same compound, in data set [2], the “concentration of HOCl that causes trouble on sensitive parts of human body and stench of the solution” value is on record as “over 6 ppm”. For the same compound, the half-life in data set [3] amounted to 3 min. In addition, the “sterilizing efficacy relative to OCl−” value in [7] was 80 times. Also, the half-life time in [11] was 44 h.
